Measurements reported in patent US9206457B2, “Utilization of pharmacological chaperones to improve manufacturing and purification of biologics” (Amicus Therapeutics, Inc., priority 2009, dated 2015).
Positions count from the first letter of the chain named.

Tests used:
α-Gal A [1] = target: T1, α-Gal A (Homo sapiens, UniProt P06280); assay: α-Gal A activity in conditioned media of COS-7 cells transfected with GLA plasmid, 72 h; assay type: cell-based; details: 72 hours expression
T1 construct: expressed in transfected cells; host or cells: COS-7
T1 sequence (P06280 32-429): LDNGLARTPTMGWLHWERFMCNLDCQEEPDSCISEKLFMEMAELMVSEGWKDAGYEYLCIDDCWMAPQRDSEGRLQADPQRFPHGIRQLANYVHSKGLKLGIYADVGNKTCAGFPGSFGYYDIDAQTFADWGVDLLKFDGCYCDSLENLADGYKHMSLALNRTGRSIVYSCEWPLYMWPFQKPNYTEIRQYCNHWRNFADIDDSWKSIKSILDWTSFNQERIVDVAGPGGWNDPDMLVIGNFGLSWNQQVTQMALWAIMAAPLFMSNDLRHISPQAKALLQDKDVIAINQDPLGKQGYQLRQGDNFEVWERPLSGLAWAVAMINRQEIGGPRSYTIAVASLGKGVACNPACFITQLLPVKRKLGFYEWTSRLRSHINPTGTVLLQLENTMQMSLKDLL
Protocol: COS-7 cells were transiently transfected with empty vector or a plasmid coding for the α-Gal A gene (GLA). […] After 72-hours of protein expression, the conditioned media from each transfection was harvested, and the level of α-Gal A activity was assessed using the substrate […].

GCase = target: T2, GCase (Homo sapiens, UniProt P04062); assay: GCase activity in conditioned media of COS-7 cells transfected with human GBA1 plasmid, 72 h; assay type: cell-based; details: 72 hours expression
T2 construct: expressed in transfected cells; host or cells: COS-7
T2 sequence (P04062 40-536): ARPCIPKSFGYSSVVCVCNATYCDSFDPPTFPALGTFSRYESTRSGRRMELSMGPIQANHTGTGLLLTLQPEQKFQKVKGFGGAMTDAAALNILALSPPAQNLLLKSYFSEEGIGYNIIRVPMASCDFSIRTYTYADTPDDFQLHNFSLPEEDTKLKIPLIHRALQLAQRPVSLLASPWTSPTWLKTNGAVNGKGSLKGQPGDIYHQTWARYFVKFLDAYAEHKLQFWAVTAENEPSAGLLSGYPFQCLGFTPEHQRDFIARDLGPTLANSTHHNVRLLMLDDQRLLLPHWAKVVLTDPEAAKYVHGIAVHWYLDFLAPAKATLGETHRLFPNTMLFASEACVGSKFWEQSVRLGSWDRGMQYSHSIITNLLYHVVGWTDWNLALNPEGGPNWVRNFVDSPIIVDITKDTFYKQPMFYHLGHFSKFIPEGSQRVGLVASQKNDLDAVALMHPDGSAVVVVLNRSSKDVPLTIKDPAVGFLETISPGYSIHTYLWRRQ

α-Gal A [2] = target: T1, α-Gal A; assay: α-Gal A activity in conditioned media of transiently transfected COS-7 cells, 48 h, concanavalin A capture; assay type: cell-based; details: 100 μM chaperone, 48 hours expression
α-Gal A (Fabrazyme®) = target: T3, α-Gal A (Fabrazyme®) (Homo sapiens, UniProt P06280); assay: SYPRO Orange thermal stability assay (heat denaturation) of α-Gal A; assay type: binding; details: 10 and 100 μM DGJ, pH 7.4
T3 construct: purchased
T3 sequence (P06280 32-429): T1 sequence (P06280 32-429)

α-Gal A [3] = target: T1, α-Gal A; assay: SYPRO Orange α-Gal A denaturation over time at 37° C.; assay type: binding; details: 50 μM DGJ added at 3 or 6 hours, pH 7.4, 37° C.
α-Glucosidase (GAA) = target: T4, α-Glucosidase (GAA) (Homo sapiens, UniProt P10253); assay: GAA activity in conditioned media of COS-7 cells transfected with human GAA plasmid, 72 h; assay type: cell-based; details: 72 hours expression
T4 construct: expressed in transfected cells; host or cells: COS-7

[4] = target: T5, recombinant human GAA (Myozyme®) (Homo sapiens, UniProt P10253); assay: SYPRO Orange GAA unfolding over time at 37° C.; assay type: binding; details: 50 μM DNJ added at 3 or 6 hours, pH 7.4, 37° C.
T5 construct: purchased Genzyme Corp

[5] = target: T5, recombinant human GAA (Myozyme®); assay: SYPRO Orange thermal stability assay (heat denaturation) of GAA; assay type: binding
Excerpt: The thermal stability assay utilizes heat to induce protein denaturation, which is monitored using a SYPRO Orange dye that fluoresces upon binding to hydrophobic amino acids (which are not exposed in a folded protein).
FIG. 3 depicts the results of a thermal stability assay that utilizes heat to induce protein denaturation, which is monitored using a SYPRO Orange dye that fluoresces upon binding to hydrophobic amino acids (which are not exposed in a folded protein). […] The experiment was conducted at pH 7.4.
Denaturation is monitored using a SYPRO Orange dye that fluoresces upon binding to hydrophobic amino acids (which are not exposed in a folded protein).
The thermal stability was performed at pH 7.4 for two formulations, which corresponds to the pH of the ER.
A thermal stability experiment as generally described in Example 1 was performed on four compositions: […]

[6] = target: T5, recombinant human GAA (Myozyme®); assay: Residual GAA enzyme activity (4-MU-α-glucose) on extended incubation at 37° C.; assay type: biochemical; details: 50 μM 1-DNJ, pH 7.4, 37° C., over 24 hours
Protocol: FIG. 2A depicts the effects of 1-DNJ-HCl on recombinant human GAA (rhGAA; Myozyme®, Genzyme Corp.) activity at neutral pH (7.4) or lysosomal pH (5.2) at 37° C. GAA activity was evaluated to assess the ability of an ASSC to prolong the activity of rhGAA over time. Myozyme (45 nM) was incubated in pH 7.4 or pH 5.2 buffer with or without 50 μM 1-DNJ at 37° C. over 24 hours. Samples were assayed for GAA enzyme activity using 4-MU-α-glucose at 0, 3, 6 and 24 hours and the residual GAA activity was expressed as % of initial activity.
Residual GAA activity was determined for four formulations:
Activity was measured, based on the % of initial activity (t=0) over 24 hours. Samples were assayed for GAA enzyme activity based on the hydrolysis of the fluorogenic substrate 4-MU-α-glucose at 0, 3, 6 and 24 hours. The GAA activity was expressed as % of initial activity, i.e. residual activity.

GCase (Cerezyme®) [7] = target: T6, GCase (Cerezyme®) (Homo sapiens, UniProt P04062, R534H); assay: GCase activity over time in neutral or acidic buffer at 37° C. (4-MUG); assay type: biochemical; details: 1 μM IFG, 10 nM GCase, pH 7.4, 37° C.
T6 construct: purchased Genzyme Corp
T6 sequence (P04062 40-536 R534H): T2 sequence (P04062 40-536) with R495H

acid β-glucosidase = target: T7, acid β-glucosidase (Homo sapiens, UniProt P04062); details: 100 μM chaperone, 48 hours expression, COS-7
T7 sequence (P04062 40-536): T2 sequence (P04062 40-536)

GCase (Cerezyme®) [8] = target: T6, GCase (Cerezyme®); assay: GCase activity in human plasma at 37° C. (4-MUG); assay type: in vitro ADME; details: IFG 3 μM, 30 μM, 100 μM, over 4 hours
Protocol: FIG. 10 depicts the effects of IFG on recombinant human GCase (GCase; Cerezyme®, Genzyme Corp.) activity in human plasma at 37° C. GCase activity was evaluated to assess the ability of an ASSC to prolong the activity of GCase in human plasma over time. Cerezyme (0.5 μM) was incubated in human plasma with increasing concentrations of IFG (3 μM, 30 μM, or 100 μM) at 37° C. over 4 hours. Samples were assayed for GCase enzyme activity using 4-MU-β-glucose at 0.25, 0.5, 1, 2 and 4 hours and the residual GCase activity was expressed as % of initial activity.
The activity of GCase (0.5 μM; Cerazyme®) at 37° C. in human plasma was assessed for increasing concentrations of IFG (3 μM, 30 μM, and 100 μM) as a function time using the substrate 4-MUG.

[9] = target: T8, acid β-glucosidase (GCase; Cerezyme®) (Homo sapiens, UniProt P04062, R534H); assay: SYPRO Orange GCase unfolding over time at 37° C.; assay type: binding
T8 construct: purchased Genzyme Corp
T8 sequence (P04062 40-536 R534H): T2 sequence (P04062 40-536) with R495H
Protocol: FIG. 5 depicts a SYPRO Orange thermal stability experiment to monitor the unfolding of acid β-glucosidase (GCase; Cerezyme®). GCase (2 μM) was incubated in pH 7.4 or pH 5.2 buffer with or without 10 μM IFG at 37° C. and protein unfolding was monitored every hour over 24 hours.
FIG. 9 depicts a SYPRO Orange thermal stability experiment to monitor the unfolding of acid β-glucosidase (GCase; Cerezyme®). GCase was incubated in pH 7.4 or pH 5.2 buffer with or without 10 μM or 100 μM IFG at 37° C., and protein unfolding was monitored every hour over 24 hours.
FIG. 15 depicts that addition of 50 μM IFG at 3 or 6 hours after incubation of GCase (Cerezyme®) in neutral (pH 7.4) buffer at 37° C. prevents further denaturation of the enzyme as measured by SYPRO dye fluorescence.
In this thermal stability experiment, the concentration of IFG was 10 μM in formulation (3).
In this thermal stability experiment, the concentration of IFG was 0, 10 μM, or 100 μM as described above.
The stability of α-Gal A, α-Glucosidase (GAA), and GCase (Cerezyme®) at 37° C. in neutral (pH 7.4) buffer was measured using the SYPRO Orange for 3, 6 or 24 hours.

[10] = target: T8, acid β-glucosidase (GCase; Cerezyme®); assay: SYPRO Orange thermal stability assay (heat denaturation) of GCase; assay type: binding
Protocol: FIG. 4 depicts the results of a thermal stability assay that utilizes heat to induce protein denaturation, which is monitored using a SYPRO Orange dye that fluoresces upon binding to hydrophobic amino acids (which are not exposed in a folded protein). Isofagomine increases acid β-glucosidase thermostability as evident by increases in melting temperature in a dose-dependent manner. The experiment was conducted at pH 7.4.
FIG. 8 depicts the stability of recombinant human GCase (Cerazyme®, Genzyme Corp.) at neutral pH (7.4) or acidic pH (5.2) in the presence or absence of 10 μM of IFG as determined in a thermal stability assay. The thermal stability assay utilizes heat to induce protein denaturation, which is monitored using a SYPRO Orange dye that fluoresces upon binding to hydrophobic amino acids (which are not exposed in a folded protein).
A thermal stability experiment as generally described in Example 1 was performed on three compositions of GCase (Cerezyme®):
A thermal stability experiment as generally described in Examples 1 and 4 was performed on three compositions of GCase (Cerezyme®):
Protein denaturation was monitored using SYPRO Orange dye which fluoresces when bound to exposed hydrophobic amino acids.

Molecule: O[C@H]1[C@H](O)CNC[C@@H]1C(F)F [AT3375]
- α-Gal A activity from conditioned media (α-Gal A [1]): increased slightly
- GCase activity recovered from conditioned media (GCase): increased the activity

Molecule: OC[C@H]1NC[C@H](O)[C@@H](O)[C@H]1O [DGJ, 1-deoxygalactonorjirimycin]
- α-Gal A activity from conditioned media (α-Gal A [2]): increased the activities
- α-Gal A thermal stability (melting temperature) (α-Gal A (Fabrazyme®)): increases α-Gal A thermal stability in a dose-dependent manner
- α-Gal A activity from conditioned media (α-Gal A [1]): increased slightly
- Further denaturation of α-Gal A (α-Gal A [3]): prevented further denaturation

Molecule: OC[C@H]1NC[C@H](O)[C@@H](O)[C@@H]1O [DNJ, 1-deoxynorjirimycin]
- GAA activity recovered from conditioned media (α-Glucosidase (GAA)): little effect
- Further denaturation of GAA [4]: prevented further denaturation
- GAA thermal stability (heat required to denature) ([5]; 100 μM DNJ, pH 7.4, versus formulation without ASSC): required significantly more heat to denature
- GAA thermostability (melting temperature) ([5]; 1, 10, 100 μM 1-DNJ-HCl, pH 7.4, dose-dependent): increases GAA thermostability
- Effect on loss of GAA enzyme activity [6]: ameliorates the loss of GAA enzyme activity

Molecule: OC[C@H]1CNC[C@@H](O)[C@@H]1O [IFG, (3R,4R,5R)-5-(hydroxymethyl)-3,4-piperidinediol]
- Stability of GCase activity over time (GCase (Cerezyme®) [7]): significantly increases the stability
- Acid β-glucosidase activity from conditioned media (acid β-glucosidase): increased the activities
- Stability of GCase activity in human plasma (GCase (Cerezyme®) [8]): significantly increases the stability of GCase and prevents enzyme inactivation
- GCase unfolding ([9]; 10 μM IFG, pH 7.4, 37° C., over 24 hours (Example 5)): prevented GCase unfolding
- Stability of GCase (unfolding over time) ([9]; 10 μM and 100 μM IFG, neutral pH, 37° C. (Example 9)): significantly increases the stability
- Further denaturation of GCase ([9]; 50 μM IFG added at 3 or 6 hours, pH 7.4, 37° C.): prevented further denaturation
- Stability of recombinant human GCase upon thermal challenge ([10]; 10 μM IFG, pH 7.4 (Example 8)): significantly increases stability
- GCase thermal stability (melting temperature) ([10]; 10 and 100 μM IFG, pH 7.4): increases GCase thermal stability in a dose-dependent manner
- GCase activity recovered from conditioned media (GCase): increased the activity

Molecule: Myozyme: recombinant human GAA (Myozyme®, Genzyme Corp.)
- Stability of Myozyme at lysosomal versus neutral pH (thermal stability assay) ([5]; pH 5.2 versus pH 7.4, no chaperone): much more stable at lysosomal pH (5.2) than at neutral pH (7.4)
